From patent publication US11685716B2, “Plant growth inhibiting agent, and plant growth inhibiting method using same” (NATIONAL UNIVERSITY CORPORATION KUMAMOTO UNIVERSITY, priority 2017, dated 2023)
*1 amine or outer side, *2 acyl side, *3 side chain or, on linkers, in order; H or OH if unused. Where a SMILES comes first, the peptide text is derived from it. Bridges are numbered along the chain shown (N, C = ends). Roman numbers before positions name the chains, in order. [ ]: non-standard residue; d: D form. Actinocin(9to1) = Cc1c2oc3c(C)ccc(C(=O)[*:1])c3nc-2c(C(=O)[*:2])c(N)c1=O; NMeV = CN[C@H](C(=O)O)C(C)C; Sar = CNCC(=O)O

Columns and labels:
[1] = tested on: HeLa cell; assay: Cytotoxicity on human cultured cancer cells, relative survival rate (Evaluation 7); format: cell-based; conditions: control
Procedure: HeLa cells were cultured in a 96-well plate using Dulbecco's Modified Eagle's Medium (DHEM) under the culture conditions of 5% carbon dioxide and at 37° C. The compound (8b) (final concentration 50 μM), the compound (8f) (final concentration 50 μM), DMSO (final concentration 0.25%), Actinomycin D (final concentration 5 μg/ml) or Nocodazole (final concentration 100 ng/ml) was added 0 (48-hr compound treated sample), 12 (36-hr compound treated sample), 24 (24-hr compound treated sample), 36 (12-hr compound treated sample), and 48 (0-hr compound treated sample) hours after the culture was started. All of the samples were measured for living cell counts 48 hours after the culture was started with a cell counting kit (DOJINDO LABORATORIES), and a measured value of each-time compound treated-sample was divided by the measured value of 0-time compound treated sample to calculate a relative survival rate.
In addition, a transcription inhibitor Actinomycin D and a tubulin polymerization inhibitor Nocodazole were used as controls of the compounds which had cytotoxicity (induces apoptosis). DMSO is a solvent in which the compound (8b) or the compound (8f) was dissolved, and used as a control to observe the affect of the solvent on the cells.

[2] = tested on: thale cress; assay: Activities on plants: growth of thale cress on agar medium (Evaluation 1, 6); format: in vivo, thale cress (Col-0, wild-type strain); conditions: for plant growth inhibition effect (activity on plant growth) / twisting of root epidermal cells / abnormality in direction of root growth: thale cress Col-0, agar medium, 7 days; for twisting of root epidermal cells / abnormality in direction of root growth: scanned images
Procedure: The test compound (compound (6a)) and DMSO for a control experiment, were added at this stage and blended. Fifty ml each of the medium was dispensed in sterile No. 2 square petri dishes (Eiken Chemical Co., Ltd.) to prepare agar medium. As a plant material, Col-0, which is a wild-type strain of […] used. Seeds, after their surfaces were sterilized, were planted on the agar medium, and vernalized at 4° C. for 16 hours. Growth of the plant was carried out in a growth chamber (SANYO MLR-351) under the conditions of an illuminance of 3 at 23° C. with constant light. The agar medium was allowed to stand upright in the chamber to grow the plant for 7 days. Lids of the petri dishes used for the test were opened, the test results were recorded with a scanner, and with the scanned images, […]

[3] = tested on: HeLa cell; assay: Cell proliferation inhibiting activity on human cultured cancer cells (Evaluation 2); format: cell-based; conditions: 32 hours; for effect on growth rate of HeLa cells (living cell counts): final concentration 200 μM
Procedure: Every 8 hours after the culture was started, living cell counts were measured with a cell counting kit (DOJINDO LABORATORIES). In addition, staurosporine was used as a control of the compound which inhibits the cell proliferation.

[4] = tested on: Schizosaccharomyces pombe (wild-type strain 972); assay: Growth inhibiting activity on Schizosaccharomyces pombe (Evaluation 3); format: cell-based; conditions: final concentration 100 μM, up to 30 hours
Procedure: The compound (6a) or the compound (7) (final concentration 100 μM) or 50% ethanol (final concentration 0.5%) was added to YE medium in which Schizosaccharomyces pombe (wild-type strain 972) was inoculated to carry out shaking culture at 30° C. Six, 12, 18, 24, and 30 hours after the culture was started, turbidity (OD600) of the culture medium was measured with a spectrophotometer to analyze the affect of the compound (6a) or the compound (7), or 50% ethanol on the growth of the Schizosaccharomyces pombe cells.

[5] = tested on: Saccharomyces cerevisiae (BY4741 strain); assay: Growth inhibiting activity on Saccharomyces cerevisiae (Evaluation 4); format: cell-based; conditions: final concentration 10 μM or 100 μM, up to 24 hours
Procedure: The compound (6a) or the compound (7) (final concentration 10 μM or 100 μM), or 50% ethanol (final concentration 0.05% or 0.5%) was added to YPD medium in which Saccharomyces cerevisiae (BY4741 strain) was inoculated to carry out shaking culture at 30° C. Four, 8, 16, and 24 hours after the culture was started, turbidity (OD600) of the culture medium was measured with a spectrophotometer to analyze the affect of the compound (6a) or the compound (7), or 50% ethanol on the growth of the […] cells.

[6] = tested on: E. coli (DH5a strain); assay: E. coli growth inhibiting activity (Evaluation 5); format: cell-based
Procedure: The compound (6a) or the compound (7) (final concentration 10 μM or 100 μM), 50% ethanol (final concentration 0.05% or 0.5%), or ampicillin (final concentration 50 μg/ml) was added to LB medium in which E. coli (DH5a strain) was added to carry out shaking culture at 37° C. One, 2, 4, and 6 hours after the culture was started, turbidity (OD600) of the culture medium was measured with a spectrophotometer to analyze the affect of the compound (6a) or the compound (7), 50% ethanol, ampicillin on the growth of E. coli cells.
In addition, ampicillin was used as a control of the compound which inhibits the growth.

[7] = final concentration 10 μM or 100 μM, up to 6 hours
[8] = thale cress Col-0, concentration of 1000 μM

With `Cc1c2oc3c(C)ccc(C(=O)N[C@@H]4C(=O)N[C@H](C(C)C)C(=O)N5CCC[C@H]5C(=O)N(C)CC(=O)N(C)[C@@H](C(C)C)C(=O)O[C@@H]4C)c3nc-2c(C(=O)N[C@@H]2C(=O)N[C@H](C(C)C)C(=O)N3CCC[C@H]3C(=O)N(C)CC(=O)N(C)[C@@H](C(C)C)C(=O)O[C@@H]2C)c(N)c1=O` [Actinomycin D] (I: T[dV]P[Sar][NMeV] / II: T[dV]P[Sar][NMeV]; ester I:1-I:C, II:1-II:C; linker I:N-II:N via Actinocin(9to1)) the “viability of HeLa cells (relative survival rate)” value ([1]; final concentration 5 μg/ml) was “induced apoptosis”.
With `COn1cccc1C(=O)O` [Compound 6a, 1-Methoxy-1H-pyrrole-2-carboxylic acid] the “plant growth inhibition effect (activity on plant growth)” value [2] was “plant growth inhibition was significantly observed”, the “twisting of root epidermal cells / abnormality in direction of root growth” value [2] was “epidermal cells of the roots were twisted leftward and abnormality in a direction of root growth was observed” and the “root epidermal cells, observation by stereomicroscope” value ([2]; thale cress Col-0, compound added, FIG. 2) was “epidermal cells of the roots were observed to have been twisted leftward”. For the same molecule, the “effect on growth rate of HeLa cells (living cell counts)” value [3] was “no affect at all”, the “growth of Schizosaccharomyces pombe (OD600)” value [4] was “neither the compound (6a) nor the compound (7) inhibits the growth” and the “growth of Saccharomyces cerevisiae (OD600)” value [5] was “neither the compound (6a) nor the compound (7) inhibits the growth”. For the same molecule, the “E. coli growth (OD600)” value [6, 7] was “neither the compound (6a) nor the compound (7) inhibits the E. coli growth”.
`CCCOn1cccc1C(=O)O` [Compound 6d, 1-Propoxy-1H-pyrrole-2-carboxylic acid] was tested, and the germination [2, 8] was “No germinations were observed”.
In the case of `CC(C)On1cccc1C(=O)O` [Compound 6e, 1-Isopropoxy-1H-pyrrole-2-carboxylic acid], the germination [2, 8] is reported as “No germinations were observed”.
With `CCCCOn1cccc1C(=O)O` [Compound 6f, 1-Butoxy-1H-pyrrole-2-carboxylic acid] the germination ([2]; thale cress Col-0, concentration of 500 μM) was “substantially no germination was observed” and the germination [2, 8] was “no germination was observed”.
With `O=C(O)c1cccn1OCc1ccccc1` [Compound 6g, 1-(Benzyloxy)-1H-pyrrole-2-carboxylic acid] the “plant growth inhibition effect (activity on plant growth)” value [2] was “a plant growth inhibiting effect was observed even more than when each of the compounds (6d) to (6f)”.
`COn1cccc1C(N)=O` [Compound 7, 1-Methoxy-1H-pyrrole-2-carboxamide] was tested, and the “twisting of root epidermal cells / abnormality in direction of root growth” value [2] was “epidermal cells of the roots were twisted leftward and abnormality in a direction of the root growth was observed”, the “effect on growth rate of HeLa cells (living cell counts)” value [3] was “no affect at all” and the “growth of Schizosaccharomyces pombe (OD600)” value [4] was “neither the compound (6a) nor the compound (7) inhibits the growth”. The “growth of Saccharomyces cerevisiae (OD600)” value [5] was “neither the compound (6a) nor the compound (7) inhibits the growth” and the “E. coli growth (OD600)” value [6, 7] was “neither the compound (6a) nor the compound (7) inhibits the E. coli growth”.
For `COC(=O)Nc1nc2ccc(C(=O)c3cccs3)cc2[nH]1` [Nocodazole], the “viability of HeLa cells (relative survival rate)” value ([1]; final concentration 100 ng/ml) was “induced apoptosis”.
With `C#CC(C)(C)NC(=O)c1cc(Cl)cc(Cl)c1` [Propyzamide, reference compound] the “twisting of root epidermal cells / abnormality in direction of root growth” value [2] was “abnormality in a direction of the root growth was also observed”.
In the case of `CC1(C)S[C@@H]2[C@H](NC(=O)[C@H](N)c3ccccc3)C(=O)N2[C@H]1C(=O)O` [ampicillin, reference compound], the “E. coli growth (OD600)” value ([6]; final concentration 50 μg/ml, control) is reported as “growth inhibition was observed”.
With `CN[C@@H]1C[C@H]2O[C@@](C)([C@@H]1OC)n1c3ccccc3c3c4c(c5c6ccccc6n2c5c31)C(=O)NC4` [staurosporine, reference compound] the “effect on HeLa cells (living cell counts)” value ([3]; final concentration 1 μM, control) was “induced the apoptosis”.
